Measurements reported in US20090130070A1, “METHOD OF TREATMENT” (The University of Queensland, priority 2004, published 2009).

Columns and labels:
[1] = system: Human epidermal keratinocytes (HaCaT cells); assay: "scrape" in vitro wound healing model (wound closure of a scraped confluent monolayer); assay type: cell-based; conditions: for wound width, day 1: day 1 (24 hours); for wound width, day 2: day 2 (48 hours); for ability to enhance keratinocyte wound closure compared with thyroglobulin and TGF-β1 inhibitor: at all concentrations of agents
Procedure: The “scrape” in vitro wound healing model has been previously presented in the literature (Li, F. et al., 2000, Exp Cell Res., 258(2): 245-253; Firth J. D. et al., 2004, J. Invest. Dermatol., 122(1): 222-231). In this model a scrape across a confluent monolayer of cells is used to simulate a wound and the effect of agents added to serum free media is tested on the rate of closure of the gap.
Human epidermal keratinocytes (HaCaT cells) were plated at a density of 1×10^5 cells/well into Nunc 6 well plates in Dulbecco's Modified Eagle Medium (DMEM) containing 10% fetal bovine serum (FBS) benzyl penicillin (100 IU/ml), streptomycin […] confluence (2 days) monolayers were “wounded” with a 1 ml pipette tip (0.5 mm width) by scraping the tip across the centre of the well. The wells were then washed 5 times with DMEM. One ml of either DMEM with 10% FBS, DMEM or DMEM with: 3, 6, 12 or 24 mgs/ml bovine fetuin A (Sigma), 6.25, 12.5, 25 or 50 μg/ml peptide TGF peptide antagonist (Corresponding to residues 41-65 of TGFβ-1-3:—Huang S. S. et al., 1997, Journal of Biological Chemistry, 272(43):27155-27159) and 2.1, 4.2, 8.4 and 16.8 mg/ml bovine thyroglobulin was added to each well (2 replicates per plate, 4 plates). These concentrations were calculated to have equivalent antagonistic effect on the binding of TGFβ-1 to its receptor for each of the compounds. All DMEM solutions used contained benzyl penicillin (100 IU/ml), streptomycin ([…]) and fungizone (250 mg/ml). A mark was placed on the base of each well at right angles to the “wound” and the wound was photographed at the intersection of the mark and wound with a Nikon EOS 300 digital camera fitted to a JenaMed (Ziess Jena) inverted microscope (50×). Images were taken at the same positions 24 and 48 hours after addition of the treatment media. Digital images were analysed with Image Pro (Media Cybernetics) image analysis software and an image of a Nikon stage micrometer was used for calibration of length measurements. Results were summarized as the wound width after 24 and 48 hours.

[2] = Penetration of Oregon green labeled fetuin A into wounds in the porcine burn model; assay type: in vivo, pigs; conditions: 4 hours post treatment
Procedure: The potential use of the protein as a topical application was explored by labeling the protein with FluoroReporter Oregon Green® 488 Protein (Molecular Probes) then applying it as 1) a hydrophobic cream 2) a hydrophilic cream and an aqueous solution. These were applied to a porcine burn model and skin samples were collected 4 hours after application. Penetration of the protein into the wound was observed by epifluorescent microscopy.
Lyophilised bovine Fetuin A (Sigma) was dissolved in purified water at a concentration of 10 mg/mL. Aliquots of 200 μl were labelled using a FluoroReporter Oregon Green® 488 Protein Labelling Kit (Molecular Probes) after the manufacturer's instructions. The resulting solution was dried down using a Labconco Centrivap concentrator and weighed. Sufficient carriers (paraffin cream (Orion, Australia), aqueous cream (Orion, Australia) or purified water) were added to produce a final concentration of 2 mg/ml of solution or 2 mg/g fetuin cream. Sufficient unlabelled fetuin A was added to the solution and cream to bring the total fetuin A concentration up to 40 mg/ml or gram.
All animal experiments were approved by the University of Queensland animal ethics committee. Six 20 kg pigs (approximately 9 weeks post partum) were scalded under general anaesthesia. Water (400 mls) was placed in a 500 ml Schott bottle whose base had been removed with a diamond saw and replaced by cling wrap held in place by autoclave tape. The water was heated in a microwave oven to 92° C. (temperature was measured with a Dick Smith Q1437 digital thermometer) then the bottle was placed on the clipped side of the animal for 15 seconds. A single 8.5 cm diameter wound was placed on each side of the animal. Each animal received a different treatment these being:
1. Treatment of intact skin with an aqueous solution of 2 mls of Oregon green labeled bovine fetuin (40 mg/ml in sterile phosphate buffered saline pH 7.4).
2. Treatment of intact skin with an aqueous gel of 2 g of Oregon green labeled bovine fetuin (40 mg/g in Solosite™ wound gel).
3. […]

TGF-β2 = target: T1, TGF-β2 (Homo sapiens, UniProt P61812); conditions: cited from earlier work
T1 sequence (P61812 303-414 limits assumed): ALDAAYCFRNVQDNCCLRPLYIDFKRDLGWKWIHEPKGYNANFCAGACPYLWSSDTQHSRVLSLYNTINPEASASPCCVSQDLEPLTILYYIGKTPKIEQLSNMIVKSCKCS

TGF-β3 = target: T2, TGF-β3 (Homo sapiens, UniProt P10600); conditions: cited from earlier work
T2 sequence (P10600 301-412 limits assumed): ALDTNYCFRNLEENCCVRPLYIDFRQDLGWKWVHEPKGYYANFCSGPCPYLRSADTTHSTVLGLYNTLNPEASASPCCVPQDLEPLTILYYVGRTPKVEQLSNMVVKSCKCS

[3] = 3 mgs/ml bovine fetuin A in DMEM
[4] = 6 mgs/ml bovine fetuin A in DMEM
[5] = 12 mgs/ml bovine fetuin A in DMEM
[6] = 24 mgs/ml bovine fetuin A in DMEM

Fetuin: bovine fetuin A (Sigma); glycoprotein also called alpha2-Heremans-Schmid-glycoprotein (AHSG)
wound width, day 0 [1, 3]: 0.7602
wound width, day 1 [1, 3]: 0.4265
wound width, day 2 [1, 3]: 0.02947
wound width, day 0 [1, 4]: 0.7332
wound width, day 1 [1, 4]: 0.3938
wound width, day 2 [1, 4]: 0.01441
wound width, day 0 [1, 5]: 0.7231
wound width, day 1 [1, 5]: 0.3699
wound width, day 2 [1, 5]: 0.000259
wound width, day 0 [1, 6]: 0.6724
wound width, day 1 [1, 6]: 0.3806
wound width, day 2 [1, 6]: 0.04348
ability to enhance keratinocyte wound closure compared with thyroglobulin and TGF-β1 inhibitor ([1]; listed as fetuin): markedly more effective than either thyroglobulin or a TGF-β1 inhibitor
ability to enhance keratinocyte wound closure compared with thyroglobulin and TGF-β1 inhibitor ([1]; listed as fetuin A): significantly greater ability than thyroglobulin and TGFβ1 to enhance keratinocyte wound closure
penetration into the wound bed ([2]; debrided wound, aqueous solution): significant penetration into the wound bed
penetration into the wound bed ([2]; debrided wound, water based gel): significant penetration into the wound bed
penetration into the wound bed ([2]; direct injection into the wound): significant penetration into the wound bed
binding to TGF-β2 (TGF-β2): strongly
binding to TGF-β3 (TGF-β3): weakly
